Literature values as cited in patent US20210353673A1, “CD11B + PIEZO-1 + MACROPHAGES AND USES THEREOF” (ALBERT-LUDWIGS-UNIVERSITÄT FREIBURG, priority 2018, published 2021).

Test system: endothelial cells
Details: after 1 week, normal angiogenesis induced by VEGF

vascular endothelial growth factor [VEGF]
ECs in Go phase: 93%
